Here are results for 1 compound from patent publication US11453667B2, “Pyridone-pyrimidine derivative acting as KRASG12C mutein inhibitor” (MEDSHINE DISCOVERY INC., priority 2018, dated 2022).

Assay [1] concerns MIA PaCa2 human pancreatic cancer cells with KRAS G12C mutation. Kind of assay: Cell experiment: anti-proliferative activity, CellTiter-Glo, MIA PaCa2. As to conditions: Homo sapiens, MIA PaCa-2, 120 h, 5 days culture. In kind it is cell-based. As for the experimental part: This experiment is intended to verify that the compounds of the present invention have an inhibitory effect on the proliferation of NCI-H358 human non-small cell lung cancer cells with KRAS G12C mutation, MIA PaCa2 human pancreatic cancer cells with KRAS G12C mutation and wild-type A375 human malignant melanoma cells.
40 μl of phosphate buffer was added to the peripheral wells of three 384-well microplates respectively, and 40 μl of cell suspension to be tested was added to the other wells of each plate respectively (plate 1: NCI-H358 cell suspension containing 500 NCI-H358 cells; plate 2: MIAPaCa2 cell suspension containing 300 MIAPaCa2 cells; plate 3: A375 cell suspension containing 300 A375 cells). The three cell plates were then placed in a carbon dioxide incubator and incubated overnight. Echo was used to perform a 3-fold gradient dilution of the compounds to be tested, and each compound was diluted with 10 concentration gradients (diluted from 50 μM to 0.003 μM), 100 nl of which was respectively added to the corresponding wells of the cell plates; after dosing, 40 μL of phosphate buffer was added to each well of rows A and P and columns 1 and 24, and then the cell plates were put back to the carbon dioxide incubator for culturing for 5 days. 20 μl of Promega CellTiter-Glo reagent per well was added to the cell plates, which was shaken at room temperature for 10 minutes in the dark to stabilize the luminescence signal. A PerkinElmer Envision multi-label analyzer was used for reading.
Data analysis: IC50 results were analyzed by GraphPad Prism 5.0 software […].

The subject of assay [2] is human non-small cell lung cancer NCI-H358. Kind of assay: In vivo drug efficacy test (2): subcutaneous xenograft tumor model. More on the design: species or system BALB/c nude mice. As to conditions: 100 mg/kg (0-6 days) + 50 mg/kg (7-20 days). As for the experimental part: (§1) To evaluate the in vivo efficacy of the test compounds in a subcutaneous xenograft tumor model of human non-small cell lung cancer NCI-H358.
BALB/c nude mice, female, 6-8 weeks old, weighing 18-21 grams. A total of 100 were required. They were provided by Shanghai Lingchang Experimental Animal Co., Ltd ( ? ? ). NCI-H358 tumor cells were resuspended in PBS to prepare 0.1 mL (5×10^6) of cell suspension, which was inoculated subcutaneously on the right back of each mouse (5×10^6/mouse) to wait for tumor growth. When the average tumor volume reached about 150-200 mm^3, randomized grouping and administration were performed, and the administration dose was shown in Table 6. The diameter of the tumor was measured with vernier calipers twice a week. The formula for calculating the tumor volume is: V=0.5a×b^2, wherein a and b represent the long and short diameters of the tumor, respectively. The tumor suppressive effect of the compounds was evaluated by TGI (%). TGI (%) reflects the tumor growth inhibition rate. Calculation of TGI (%): TGI (%)=[(1−(average tumor volume at the end of administration in a treatment group−average tumor volume at the beginning of administration in the treatment group))/(average tumor volume at the end of treatment in the solvent control group−average tumor volume at the beginning of treatment in the solvent control group)]×100%.

In assay [3] the test system is human pancreatic cancer x-MIA-PaCa2 cell. Nature of the assay: In vivo drug efficacy test (3): subcutaneous xenograft tumor model. Also noted: species or system NU/NU mice. The settings on record: 50 mg/kg. On the procedure: To evaluate the in vivo efficacy of the test compounds in a subcutaneous xenograft tumor model of human pancreatic cancer x-MIA-PaCa2 cell.
NU/NU mice, female, 6-8 weeks old, weighing 17-20 grams. A total of 100 were required (additional 30% of animals were inoculated). They were provided by Beijing Vital River Science and Technology Co., Ltd. Each mouse was subcutaneously inoculated with 0.2 mL (10×10^6) of x-MIA-PaCa2 cells (plus matrigel, with the volume ratio being 1:1) on the right back. When the average tumor volume reached about 150 mm^3, grouping and administration were performed, and the administration dose was shown in Table 7. The diameter of the tumor was measured with vernier calipers twice a week. The formula for calculating the tumor volume is: V=0.5a×b^2, wherein a and b represent the long and short diameters of the tumor, respectively. The tumor suppressive effect of the compounds was evaluated by TGI (%). TGI (%) reflects the tumor growth inhibition rate. Calculation of TGI (%): TGI (%)=[(1−(average tumor volume at the end of administration in a treatment group−average tumor volume at the beginning of administration in the treatment group))/(average tumor volume at the end of treatment in the solvent control group−average tumor volume at the beginning of treatment in the solvent control group)]×100%.

The test system of assay [4] is human non-small cell lung cancer NCI-H358. Nature of the assay: In vivo drug efficacy test (4): subcutaneous xenograft tumor model. As to conditions: for TGI: day 27. More on the design: species or system BALB/c nude mice. As for the experimental part:
as §1
BALB/c nude mice, female, 6-8 weeks old, weighing 18-20 grams. A total of 40 were required. They were provided by Shanghai Lingchang Experimental Animal Co., Ltd ( ? ? ). NCI-H358 tumor cells were resuspended in PBS to prepare a cell suspension with a density of 5×10^7/mL, which was inoculated subcutaneously on the right back of each mouse (0.1 mL, 5×10^6/mouse) to wait for tumor growth. When the average tumor volume reached about 166 mm^3, randomized grouping and administration were performed, and the administration dose was shown in Table 8. The diameter of the tumor was measured with vernier calipers twice a week.
The formula for calculating the tumor volume is: V=0.5a×b^2, wherein a and b represent the long and short diameters of the tumor, respectively. The tumor suppressive effect of the compounds was evaluated by TGI (%). TGI (%) reflects the tumor growth inhibition rate. Calculation of TGI (%): TGI (%)=[(1−(average tumor volume at the end of administration in a treatment group−average tumor volume at the beginning of administration in the treatment group))/(average tumor volume at the end of treatment in the solvent control group−average tumor volume at the beginning of treatment in the solvent control group)]×100%.

Setting [5] is: 50 mg/kg (0-2 days) + 1.5 mg/kg (3-27 days).

The compound `C=CC(=O)N1CCN(c2ncnc3c(=O)n(-c4c(N)c(Cl)cc(Cl)c4F)c(C(F)(F)F)cc23)CC1` [Example 49] returned an IC50 in assay [1] of 70 nM. For the same compound, the “Tumor volume (day 20)” value in assay [2] is reported as 30 mm^3. Also, the TGI in assay [2] (day 20) came out at 125.66%; in assay [3] (day 14), 96.77%; in assay [4] (5 mg/kg), 107.25%; in assay [4] (15 mg/kg) it was 116.27%; in assay [4] (setting [5]), 80.92%. In addition, the “Tumor volume (day 14)” value in assay [3] is on record as 204 mm^3. Moreover, the results for the “Tumor volume (day 27)” value in assay [4] (5 mg/kg), in assay [4] (15 mg/kg) and in assay [4] (setting [5]) were 117 mm^3, 56 mm^3 and 295 mm^3, respectively.

Usually IC50 stands for the concentration needed to halve the response being measured. Read a high IC50 as weaker potency.
